pIC50: −log10 of the molar value.
Assays:
[1] = target: human JAK2 (a.a. 828-1132) (Homo sapiens (Human), UniProt O60674); assay: In vitro JAK kinase assay (HTRF), JAK2; format: biochemical; conditions: JAK2/JAK1 IC50 ratio, 1 mM ATP
Description: (§1) The catalytic activity of JAK1, JAK2, or JAK3 was assayed by measuring the phosphorylation of a biotinylated peptide. The phosphorylated peptide was detected by homogenous time resolved fluorescence (HTRF). […] Reactions are carried out at room temperature for 1 hour and then stopped with 20 μL 45 mM EDTA, 300 nM SA-APC, 6 nM Eu-Py20 in assay buffer (Perkin Elmer, Boston, MA). Binding to the Europium labeled antibody takes place for 40 minutes and HTRF signal was measured on a Fusion plate reader (Perkin Elmer, Boston, MA).

[2] = target: human JAK1 (a.a. 837-1142) (Homo sapiens, UniProt P23458); assay: In vitro JAK kinase assay (HTRF), JAK1; format: biochemical; conditions: 1 mM ATP
Description: as §1

Sequence of human JAK2 (a.a. 828-1132) (O60674 828-1132): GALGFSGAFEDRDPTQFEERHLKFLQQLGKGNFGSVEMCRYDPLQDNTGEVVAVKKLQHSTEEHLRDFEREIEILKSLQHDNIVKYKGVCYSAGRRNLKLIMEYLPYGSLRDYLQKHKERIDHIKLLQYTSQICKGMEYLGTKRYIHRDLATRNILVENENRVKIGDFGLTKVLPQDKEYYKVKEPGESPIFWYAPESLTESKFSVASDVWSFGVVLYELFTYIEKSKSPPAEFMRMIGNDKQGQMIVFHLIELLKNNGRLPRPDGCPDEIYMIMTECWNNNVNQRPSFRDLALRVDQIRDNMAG

JAK2/JAK1 [1] | pIC50 [2] | SMILES
>10 | > 8.00 | N#CCC(C1CCN(c2cccc(Cl)n2)C1)n1cc(-c2ncnc3[nH]ccc23)cn1 (single isomer, unassigned) [Compound 6, 3-[1-(6-chloropyridin-2-yl)pyrrolidin-3-yl]-3-[4-(7H-pyrrolo[2,3-d]pyrimidin-4-yl)-1H-pyrazol-1-yl]propanenitrile]
>10 | > 8.00 | N#CCC1(n2cc(-c3ncnc4[nH]ccc34)cn2)CN(C2CCN(C(=O)Nc3ccc(F)cc3C(F)(F)F)CC2)C1 [Compound 2, 4-{3-(Cyanomethyl)-3-[4-(7H-pyrrolo[2,3-d]pyrimidin-4-yl)-1H-pyrazol-1-yl]azetidin-1-yl}-N-[4-fluoro-2-(trifluoromethyl)phenyl] piperidine-1-carboxamide]
>10 | > 8.00 | N#CCC1(n2cc(-c3ncnc4[nH]ccc34)cn2)CN(C2CCN(C(=O)c3ccnc(C(F)(F)F)n3)CC2)C1 [Compound 3, [3-[4-(7H-pyrrolo[2,3-d]pyrimidin-4-yl)-1H-pyrazol-1-yl]-1-(1-{[2-(trifluoromethyl)pyrimidin-4-yl]carbonyl}piperidin-4-yl)azetidin-3-yl]acetonitrile]
>10 | > 7.00 | C[C@@H](O)c1nc2cnc3ccsc3c2n1[C@H]1CC[C@H](CC#N)OC1 [Compound 5, ((2R,5S)-5-{2-[(1R)-1-hydroxyethyl]-1H-imidazo[4,5-d]thieno[3,2-b]pyridin-1-yl}tetrahydro-2H-pyran-2-yl)acetonitrile]
>10 | > 8.00 | N#CCC(C1CCN(c2nc3cccnc3o2)C1)n1cc(-c2ncnc3[nH]ccc23)cn1 (stereo not drawn) [Compound 7, 3-(1-[1,3]oxazolo[5,4-b]pyridin-2-ylpyrrolidin-3-yl)-3-[4-(7H-pyrrolo[2,3-d]pyrimidin-4-yl)-1H-pyrazol-1-yl]propanenitrile]
>10 | > 8.00 | N#CCC(CN1CCN(C(=O)c2ccc(C#N)cc2F)CC1)n1cc(-c2ncnc3[nH]ccc23)cn1 (stereo not drawn) [Compound 8, 4-[(4-{3-cyano-2-[4-(7H-pyrrolo[2,3-d]pyrimidin-4-yl)-1H-pyrazol-1-yl]propyl}piperazin-1-yl)carbonyl]-3-fluorobenzonitrile]
>10 | > 8.00 | N#CCC(CN1CCN(C(=O)c2ccc(C#N)cc2F)CC1)n1ccc(-c2ncnc3[nH]ccc23)c1 (stereo not drawn) [Compound 9, 4-[(4-{3-cyano-2-[3-(7H-pyrrolo[2,3-d]pyrimidin-4-yl)-1H-pyrrol-1-yl]propyl}piperazin-1-yl)carbonyl]-3-fluorobenzonitrile]
>10 | > 8.00 | N#CC[C@]1(n2cc(-c3ncnc4[nH]ccc34)cn2)C[C@H](N2CCN(C(=O)c3ccnc(C(F)(F)F)n3)CC2)C1 [Compound 10, [trans-1-[4-(7H-pyrrolo[2,3-d]pyrimidin-4-yl)-1H-pyrazol-1-yl]-3-(4-{[2-(trifluoromethyl)pyrimidin-4-yl]carbonyl}piperazin-1-yl)cyclobutyl]acetonitrile]
>10 | > 8.00 | N#CC[C@]1(n2cc(-c3ncnc4[nH]ccc34)cn2)C[C@H](N2CCC(Oc3cc(CN4CC(O)C4)cc(C(F)(F)F)n3)CC2)C1 [Compound 11, {trans-3-(4-{[4-[(3-hydroxyazetidin-1-yl)methyl]-6-(trifluoromethyl)pyridin-2-yl]oxy}piperidin-1-yl)-1-[4-(7H-pyrrolo[2,3-d]pyrimidin-4-yl)-1H-pyrazol-1-yl]cyclobutyl}acetonitrile]
>10 | > 8.00 | N#CC[C@]1(n2cc(-c3ncnc4[nH]ccc34)cn2)C[C@H](N2CCC(Oc3cc(CN4CCC[C@H]4CO)cc(C(F)(F)F)n3)CC2)C1 [Compound 12, {trans-3-(4-{[4-{[(2S)-2-(hydroxymethyl)pyrroli-din-1-yl]methyl}-6-(trifluoromethyl)pyridin-2-yl]oxy}piperidin-1-yl)-1-[4-(7H-pyrrolo[2,3-d]pyrimidin-4-yl)-1H-pyrazol-1-yl]cyclobutyl}acetonitrile]
>10 | > 8.00 | N#CC[C@]1(n2cc(-c3ncnc4[nH]ccc34)cn2)C[C@H](N2CCC(Oc3cc(CN4CCC[C@@H]4CO)cc(C(F)(F)F)n3)CC2)C1 [Compound 13, {trans-3-(4-{[4-{[(2R)-2-(hydroxymethyl)pyrroli-din-1-yl]methyl}-6-(trifluoromethyl)pyridin-2-yl]oxy}piperidin-1-yl)-1-[4-(7H-pyrrolo[2,3-d]pyrimidin-4-yl)-1H-pyrazol-1-yl]cyclobutyl}acetonitrile]
>10 | > 8.00 | C[C@H](NC(=O)c1cc(F)c(N2CC(CC#N)(n3cc(-c4ncnc5[nH]ccc45)cn3)C2)cc1F)C(F)(F)F [Compound 16, 4-{3-(cyanomethyl)-3-[4-(7H-pyrrolo[2,3-d]pyrimidin-4-yl)-1H-pyrazol-1-yl]azetidin-1-yl}-2,5-difluoro-N-[(1S)-2,2,2-trifluoro-1-methylethyl]benzamide]
>10 | > 8.00 | N#CCC1(n2cc(-c3ncnc4[nH]ccc34)cn2)CN([C@H]2CC[C@@H](Oc3cc(CCO)nc(C(F)(F)F)n3)CC2)C1 [Compound 18, {1-(cis-4-{[6-(2-hydroxyethyl)-2-(trifluoromethyl)pyrimidin-4-yl]oxy}cyclohexyl)-3-[4-(7H-pyrrolo[2,3-d]pyrimidin-4-yl)-1H-pyrazol-1-yl]azetidin-3-yl}acetonitrile]
>10 | > 8.00 | CCNCc1cc(O[C@H]2CC[C@@H](N3CC(CC#N)(n4cc(-c5ncnc6[nH]ccc56)cn4)C3)CC2)nc(C(F)(F)F)c1 [Compound 19, {1-(cis-4-{[4-[(ethylamino)methyl]-6-(trifluoromethyl)pyridin-2-yl]oxy}cyclohexyl)-3-[4-(7H-pyrrolo[2,3-d]pyrimidin-4-yl)-1H-pyrazol-1-yl]azetidin-3-yl}acetonitrile]
>10 | > 8.00 | CC(C)(O)c1cc(O[C@H]2CC[C@@H](N3CC(CC#N)(n4cc(-c5ncnc6[nH]ccc56)cn4)C3)CC2)nc(C(F)(F)F)c1 [Compound 20, {1-(cis-4-{[4-(1-hydroxy-1-methylethyl)-6-(trifluoromethyl)pyridin-2-yl]oxy}cyclohexyl)-3-[4-(7H-pyrrolo[2,3-d]pyrimidin-4-yl)-1H-pyrazol-1-yl]azetidin-3-yl}acetonitrile]
>10 | > 8.00 | N#CCC1(n2cc(-c3ncnc4[nH]ccc34)cn2)CN([C@H]2CC[C@@H](Oc3cc(CN4CC[C@@H](O)C4)cc(C(F)(F)F)n3)CC2)C1 [Compound 21, {1-(cis-4-{[4-{[(3R)-3-hydroxypyrrolidin-1-yl]methyl}-6-(trifluoromethyl)pyridin-2-yl]oxy}cyclohexyl)-3-[4-(7H-pyrrolo[2,3-d]pyrimidin-4-yl)-1H-pyrazol-1-yl]azetidin-3-yl}acetonitrile]
>10 | > 8.00 | N#CCC1(n2cc(-c3ncnc4[nH]ccc34)cn2)CN([C@H]2CC[C@@H](Oc3cc(CN4CC[C@H](O)C4)cc(C(F)(F)F)n3)CC2)C1 [Compound 22, {1-(cis-4-{[4-{[(3S)-3-hydroxypyrrolidin-1-yl]methyl}-6-(trifluoromethyl)pyridin-2-yl]oxy}cyclohexyl)-3-[4-(7H-pyrrolo[2,3-d]pyrimidin-4-yl)-1H-pyrazol-1-yl]azetidin-3-yl}acetonitrile]
>10 | > 8.00 | C[C@@H](CO)NCc1cc(OC2CCN([C@H]3C[C@](CC#N)(n4cc(-c5ncnc6[nH]ccc56)cn4)C3)CC2)nc(C(F)(F)F)c1 [Compound 23, {trans-3-(4-{[4-({[(1S)-2-hydroxy-1-methylethyl]amino}methyl)-6-(trifluoromethyl)pyridin-2-yl]oxy}piperidin-1-yl)-1-[4-(7H-pyrrolo[2,3-d]pyrimidin-4-yl)-1H-pyrazol-1-yl]cyclobutyl}acetonitrile]
>10 | > 8.00 | C[C@@H](O)CNCc1cc(OC2CCN([C@H]3C[C@](CC#N)(n4cc(-c5ncnc6[nH]ccc56)cn4)C3)CC2)nc(C(F)(F)F)c1 [Compound 24, {trans-3-(4-{[4-({[(2R)-2-hydroxypropyl]amino}methyl)-6-(trifluoromethyl)pyridin-2-yl]oxy}piperidin-1-yl)-1-[4-(7H-pyrrolo[2,3-d]pyrimidin-4-yl)-1H-pyrazol-1-yl]cyclobutyl}acetonitrile]
>10 | > 8.00 | C[C@H](O)CNCc1cc(OC2CCN([C@H]3C[C@](CC#N)(n4cc(-c5ncnc6[nH]ccc56)cn4)C3)CC2)nc(C(F)(F)F)c1 [Compound 25, {trans-3-(4-{[4-({[(2S)-2-hydroxypropyl]amino}methyl)-6-(trifluoromethyl)pyridin-2-yl]oxy}piperidin-1-yl)-1-[4-(7H-pyrrolo[2,3-d]pyrimidin-4-yl)-1H-pyrazol-1-yl]cyclobutyl}acetonitrile]
>10 | > 8.00 | N#CC[C@]1(n2cc(-c3ncnc4[nH]ccc34)cn2)C[C@H](N2CCC(Oc3cc(CCO)cc(C(F)(F)F)n3)CC2)C1 [Compound 26, {trans-3-(4-{[4-(2-hydroxyethyl)-6-(trifluoromethyl)pyridin-2-yl]oxy}piperidin-1-yl)-1-[4-(7H-pyrrolo[2,3-d]pyrimidin-4-yl)-1H-pyrazol-1-yl]cyclobutyl}acetonitrile]

— patent US11918581B2, “Combination therapy comprising JAK pathway inhibitor and rock inhibitor” (Incyte Corporation, priority 2021, dated 2024)
